Results taken from patent US12616706B2, “Compositions and methods of use comprising substances with neural plasticity actions administered at non-psychedelic/psychotomimetic dosages and formulations” (Arbormentis LLC, priority 2019, dated 2026).
Several values for one entry are separate records, joined by “and”; a condition that tells them apart may be missing. Identical values can stand only once.

Columns and labels:
IMR-90 = assay: Beta Gal assay, UVB induced senescence; format: cell-based
Description: Seeding occurred on Day 1, with pretreatment on Day 2, and UVB-induction and retreatment on Day 3, SABG on Day 8, and microscopy (SABG) on Day 9. […] Results for Example 6 can be seen in FIGS. 19A-27D, and Tables 4, 5, and 6 below.

5-HT2A receptors = 5-HT2A receptors (Homo sapiens, UniProt P28223); conditions: Rickli et al., 2017; cited from earlier work
BDNF = conditions: only the lower dose, 25 mg daily, 14-day period; cited from earlier work
[1] = cited from earlier work
NMDAR1 = NMDAR1 protein expression in ARPE-19 cells (immunofluorescence); format: cell-based
Protocol: (§1) First, the present inventors assessed the expression of three NMDAR subunits (NMDAR1, NMDAR2A, NMDAR2B) and two 5-HT2 subtypes (5-HT2A, 5-HT2C) by immunofluorescence coupled to confocal microscopy. 7,500 cells/well were plated in a 24-well plate on sterile glass coverslips. The next day, the immunofluorescence analysis was performed. The following primary antibodies were used: anti-NMDAR1A (Abcam, ab68144), NMDAR2A (Bioss, bs-3507R-TR), NMDAR2B (Bioss, bs-0222R-TR), 5-HT2A (Bioss, bs-12049R), 5-HT2C (Bioss, 2959R), and the secondary antibody goat anti-rabbit IgG (GeneTex, GTX213110-04). The images of the immunostained cells were acquired by means of a confocal microscope Zeiss LSM 800, using a 63× magnification and can be seen in FIGS. 9A-9E. ImageJ software was used to quantify the intensity of the fluorescent signal.
(§2) 7,500 cells/well were plated in a 24-well plate on sterile glass coverslips. […] After 6 days an immunofluorescence analysis coupled to confocal microscopy was performed with the primary and secondary antibodies described above.

NMDAR2A = NMDAR2A protein expression in ARPE-19 cells (immunofluorescence); format: cell-based
Protocol: as §1, §2

NMDAR2B = NMDAR2B protein expression in ARPE-19 cells (immunofluorescence); format: cell-based
Protocol: as §1, §2

5-HT2A = 5-HT2A receptor expression in ARPE-19 cells (immunofluorescence); format: cell-based; conditions: acute and chronic psilocin exposure; decreasing tendency
Protocol: as §1, §2

5-HT2C = 5-HT2C receptor expression in ARPE-19 cells (immunofluorescence); format: cell-based; conditions: chronic treatment with psilocin
Protocol: as §1, §2

corneal cells = assay: Psilocin cytotoxicity in corneal cells; format: cell-based, human; conditions: 0.001 to 10 μM, assessed 3 days after treatment
Protocol: (§3) Cell cultures. Human corneal epithelial (HCE) cells were obtained from the American Type Culture Collection. U937 human monocytes cell line was purchased from Thermo Scientific.
(§4) Primary corneal keratocytes were obtained after digestion of human corneas from healthy donors purchased at the Veneto Eye Bank Foundation (Venezia Mestre, Italy). After the corneal epithelium was removed with a cell scraper and the endothelium was enzymatically detached using 0.05% trypsin/0.02% EDTA-solution for 15 minutes at 37° C., the stroma was then cut into 3- to 4-mm pieces and treated overnight at 37° C. with type I collagenase (100 U/ml) and hyaluronidase (2 mg/ml) solutions in Dulbecco's Modified Eagle's Medium (DMEM). Isolated keratocytes were then seeded in monolayer and cultured at 37° C. with 5% CO2 in DMEM containing 10% FBS, 1% penicillin-streptomycin (P/S) and 1% L-glutamine (otherwise known as complete medium). Expanded cells were trypsinized and sub-cultured at a ratio of 1:2. Corneal cells were grown under standard cell culture practices in complete DMEM medium at 37° C., in a 5% CO2 atmosphere. U937 human monocytes were grown in suspension in complete RPMI 1640 medium and passaged twice weekly by dilution using a seeding density of 10^6 cells/ml.
(§5) With this procedure, only viable cells with functioning mitochondria can oxidize MTT to a violet-red reaction product.

[2] = tested on: Human corneal epithelial (HCE) cells; assay: Cell viability, MTT test, HCE cells; format: cell-based
Description: as §3, §5

keratocytes = assay: Cell viability, MTT test, keratocytes; format: cell-based, human
Protocol: as §4, §5

IL-1β = IL-1β expression in keratocytes exposed to CM of activated U937 (qPCR); format: cell-based, human; conditions: 0.1 and 1 μM psilocin, 4 h
Protocol: (§6) Anti-inflammatory and anti-fibrotic effects evaluations. Cytokines expression was analyzed in human keratocytes and HCE cells exposed to the inflammatory conditioned medium (CM) of activated U937 cells.
(§7) U937 human monocytes were differentiated to macrophages by treatment with 50 ng/mL phorbol myristate acetate (PMA) for 48 h followed by the exposure to […] lipopolysaccharide (LPS) for 1 hour. Cells were then washed and cultivated with complete RPMI for 24 hours to produce the inflammatory CM. The CM was collected, filtered and stored at −80° C. The differentiation of monocytes to macrophages was examined under an inverted phase-contrast microscope and the mRNA expression of the macrophage differentiation marker CD68 was analysed by quantitative real time PCR (qPCR). Cells were then washed and cultivated with complete DMEM for 24 hours to produce the CM. The CM was collected, filtered and stored at −80° C.
(§8) At 4 and 10 or at 4, 10 and 24 h cells were detached […] extracted to analyze the expression of pro-inflammatory cytokines (IL-1β, TNF-α, IL-8, IL-12, IFNγ). The expression of type collagen I and VEGF was analysed on mRNA extracted from keratocyte cell cultures. The experiments were performed three times.

IL-8 [3] = assay: IL-8 expression in keratocytes exposed to CM of activated U937 (qPCR); format: cell-based, human; conditions: 0.1 and 1 μM psilocin, 4 and 10 h
Protocol: as §6, §7, §8

IL-12 = IL-12 expression in keratocytes exposed to CM of activated U937 (qPCR); format: cell-based, human; conditions: 0.1 and 1 μM psilocin, 4 and 10 h
Protocol: as §6, §7, §8

TNF-α = TNF-α expression in keratocytes exposed to CM of activated U937 (qPCR); format: cell-based, human; conditions: 0.1 and 1 μM psilocin
Protocol: as §6, §7, §8

VEGF = VEGF expression in keratocytes exposed to CM of activated U937 (qPCR); format: cell-based, human; conditions: 0.1 and 1 μM psilocin, 4, 10 and 24 h
Protocol: as §6, §7, §8

collagen type I = assay: Collagen type I expression in keratocytes exposed to CM of activated U937 (qPCR); format: cell-based, human; conditions: 0.1 and 1 μM psilocin, 4, 10 and 24 h
Protocol: as §6, §7, §8

IL-8 [4] = assay: IL-8 expression in HCE cells exposed to CM of activated U937 (qPCR); format: cell-based, human; conditions: 0.1 and 1 μM psilocin, 10 h
Protocol: as §6, §7, §8

[5] = after ingestion of psilocybin mushrooms; cited from earlier work
[6] = 0.05 μM, alternating medium with/without psilocin every 24 hours (96 hours)
[7] = 3 and 6 days after treatment, 0.01, 0.1 and 1 μM

Chain of 5-HT2A receptors (P28223 whole entry): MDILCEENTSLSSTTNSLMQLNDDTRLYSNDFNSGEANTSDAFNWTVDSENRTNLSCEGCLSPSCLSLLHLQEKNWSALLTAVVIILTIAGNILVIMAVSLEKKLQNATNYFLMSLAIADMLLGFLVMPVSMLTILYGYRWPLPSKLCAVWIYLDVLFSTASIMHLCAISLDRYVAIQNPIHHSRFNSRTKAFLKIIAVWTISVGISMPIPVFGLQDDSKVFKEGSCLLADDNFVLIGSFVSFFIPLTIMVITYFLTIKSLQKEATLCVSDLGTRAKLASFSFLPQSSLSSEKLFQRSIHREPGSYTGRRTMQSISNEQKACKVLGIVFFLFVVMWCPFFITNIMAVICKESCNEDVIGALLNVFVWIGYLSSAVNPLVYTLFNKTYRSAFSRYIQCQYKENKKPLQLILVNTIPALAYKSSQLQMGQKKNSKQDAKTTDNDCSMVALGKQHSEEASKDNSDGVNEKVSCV

Which results are given for `CCC(=O)C(C[C@H](C)N(C)C)(c1ccccc1)c1ccccc1` [D methadone, dextromethadone]?
Avg % Beta Gal+ cells (IMR-90; D methadone 10 nM): 79.01%; Total % Beta Gal+ cells (IMR-90; D methadone 10 nM): 81.29%; % Beta Gal+ cells, single well/duplicate (IMR-90; D methadone 10 nM, UVB without treatment Avg 85.63514): 71.875% and 85.71% and 77.19% and 81.25%; % Beta Gal+ cells, single well/duplicate (IMR-90; D methadone 500 nM): 82.86% and 82.35% and 76.47% and 91.67%; Avg % Beta Gal+ cells (IMR-90; D methadone 500 nM): 83.34%; Total % Beta Gal+ cells (IMR-90; D methadone 500 nM): 83.94%; Affinity of 5-HT-2A receptors (5-HT2A receptors): nanomolar range; Plasma BDNF (BDNF): statistically significant increase in plasma BDNF; Nootropic signal ([1]; only the lowest tested dose of 5 mg): elicited a nootropic signal; MTD ([1]; single ascending dose 5-200 mg, nausea and vomiting): 150 mg

Which NMDAR1 expression (NMDAR1; [6]) does the source give for `CN(C)CCc1c[nH]c2cccc(O)c12` [psilocin] here?
The NMDAR1 expression was “increase of NMDAR1 expression”.

What about the NMDAR1 expression (NMDAR1; alternate incubation or psilocin-containing medium replaced every day (FIGS. 11G-11I context)) of the same compound?
Its NMDAR1 expression is “increased significantly”.

What about the “NMDAR1 subunit protein expression” value (NMDAR1; psilocin 0.05 μM for 6-days) of the same compound?
The value was “dramatic increase”.

What about the “NMDAR1 subunit protein expression” value (NMDAR1; psilocin 10 μM for 24 hours) of the same compound?
Its value is “slight, not significant increase”.

What about the “NMDAR2A subunit protein expression” value (NMDAR2A; psilocin 0.05 μM for 6-days) of the same compound?
Its value is “dramatic increase”.

And the “NMDAR2A subunit protein expression” value (NMDAR2A; psilocin 10 μM for 24 hours)?
Its value is “slight, not significant increase”.

What about the NMDAR2B expression (NMDAR2B; [6]) of the same compound?
The NMDAR2B expression was “decrease of NMDAR2B expression”.

And the “NMDAR2B subunit protein expression” value (NMDAR2B; psilocin 0.05 μM for 6-days)?
Its value is “did not change”.

What about the “NMDAR2B subunit protein expression” value (NMDAR2B; psilocin 10 μM for 24 hours) of the same compound?
Its value is “did not change”.

What about the “Expression of 5-HT2A receptor” value (5-HT2A) of the same compound?
Its value is “virtually no effect”.

And the “Expression of 5-HT2C” value (5-HT2C)?
Its value is “increased after chronic treatment”.

What about the “Cytotoxic effect in vitro” value (corneal cells) of the same compound?
Its value is “does not have a cytotoxic effect”.

And the Corneal cell viability [2, 7]?
The Corneal cell viability was “significant increase in corneal cell viability”.

And the “Cell viability (MTT)” value ([2]; HCE cells, 0.1 to 1 μM psilocin, up to 6 days)?
The value was “significant increased viability”.

What about the Corneal cell viability (keratocytes; [7]) of the same compound?
Its Corneal cell viability is “significant increase in corneal cell viability”.

What about the “Cell viability (MTT)” value (keratocytes; keratocytes, 0.1 to 1 μM psilocin, up to 6 days) of the same compound?
Its value is “significant increased viability”.

And the “IL-1β mRNA expression” value (IL-1β)?
The value was “significant decrease”.

What about the “IL-8 mRNA expression” value (IL-8 [3]) of the same compound?
The value was “significant decrease”.

What about the “IL-12 mRNA expression” value (IL-12) of the same compound?
The value was “significant decrease”.

What about the “TNF-α mRNA expression” value (TNF-α) of the same compound?
The value was “very low and comparable to that of cells treated only with CM”.

And the “VEGF I gene expression” value (VEGF)?
The value was “did not change significantly”.

What about the “Collagen type I gene expression” value (collagen type I) of the same compound?
The value was “did not change significantly”.

What about the IL-8 gene expression (IL-8 [4]) of the same compound?
Its IL-8 gene expression is “significant down-regulation”.

And the “% Beta Gal+ cells, single well/duplicate” value (IMR-90; Psilocin 5 nM)?
Its value is 86.67% and 75% and 85.71% and 81.82%.

And the “Avg % Beta Gal+ cells” value (IMR-90; Psilocin 5 nM)?
Its value is 82.3%.

And the “Total % Beta Gal+ cells” value (IMR-90; Psilocin 5 nM)?
Its value is 64.45%.

What about the Antisenescence effects (IMR-90; higher doses of psilocin (up 24 microM, experiment not shown)) of the same compound?
Its Antisenescence effects is “no antisenescence effects”.

What about the Antisenescence effects (IMR-90; psilocin lower doses (5 nM)) of the same compound?
The Antisenescence effects was “no antisenescence effects”.

And the Psilocin in bile [5]?
Its Psilocin in bile is 3102 ng/mL.

What about the “Psilocin in cardiac blood” value [5] of the same compound?
Its value is 67 ng/mL.

And the “Psilocin in peripheral blood” value [5]?
Its value is 60 ng/mL.

And the Psilocin in urine [5]?
Its Psilocin in urine is 2230 ng/mL.

And the “Psilocin in vitreous humor” value [5]?
The value was 57 ng/mL.
